Reference: article PMC8163145 (Chemical Science, 2020)

Tests used:
LHPP [1] = settings: pH 8.2, in the presence of 1 mM MgCl2; LHPP isolated from bovine liver; cited from earlier work
LHPP [2] = molecular target: T1, LHPP (Homo sapiens, UniProt Q9H008); assay type: biochemical
T1 sequence (Q9H008 1-270): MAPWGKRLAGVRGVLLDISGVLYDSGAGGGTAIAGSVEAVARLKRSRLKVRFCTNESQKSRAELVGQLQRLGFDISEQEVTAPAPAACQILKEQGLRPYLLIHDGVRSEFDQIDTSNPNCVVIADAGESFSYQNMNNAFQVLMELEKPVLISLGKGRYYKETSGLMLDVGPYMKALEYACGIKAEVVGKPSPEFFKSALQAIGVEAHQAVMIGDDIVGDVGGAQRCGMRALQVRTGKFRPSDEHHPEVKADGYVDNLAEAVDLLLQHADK

[3] = 60 °C, neutral pH; cited from earlier work

O=P(O)(O)NP(=O)(O)O [PNP, imidodiphosphate]
released phosphate (LHPP activity) (LHPP [1]): 0.44 µmol/min/mg

O=P(O)(O)OP(=O)(O)O [PPi, pyrophosphate]
released phosphate (LHPP activity) (LHPP [1]): 0.11 µmol/min/mg

N[C@@H](CCCCNP(=O)(O)O)C(=O)O [Substrate 1a, N6-phosphono-L-lysine]
enzymatically hydrolyzed substrate (LHPP [2]; 100 μM 1a, 0.25 μg LHPP, 200 μL, after 60 minutes, background subtracted): roughly 50% | hydrolysis rate by LHPP (LHPP [2]; 100 μM substrate, 200 μL 50 mM Tris–HCl, 1 mM MgCl2, pH 7.8, 0.25 μg LHPP (0.037 μM)): 0.88 µmol/min/mg | half-life time [3]: less than 1 h
